Test in all cases: Ambit kinase profiling, competition binding
The target of one experiment is T1, EPHA1 (Homo sapiens, UniProt P21709).
T1 construct: purchased Ambit Biosciences (KINOMEscan)
T1 sequence (P21709 26-976): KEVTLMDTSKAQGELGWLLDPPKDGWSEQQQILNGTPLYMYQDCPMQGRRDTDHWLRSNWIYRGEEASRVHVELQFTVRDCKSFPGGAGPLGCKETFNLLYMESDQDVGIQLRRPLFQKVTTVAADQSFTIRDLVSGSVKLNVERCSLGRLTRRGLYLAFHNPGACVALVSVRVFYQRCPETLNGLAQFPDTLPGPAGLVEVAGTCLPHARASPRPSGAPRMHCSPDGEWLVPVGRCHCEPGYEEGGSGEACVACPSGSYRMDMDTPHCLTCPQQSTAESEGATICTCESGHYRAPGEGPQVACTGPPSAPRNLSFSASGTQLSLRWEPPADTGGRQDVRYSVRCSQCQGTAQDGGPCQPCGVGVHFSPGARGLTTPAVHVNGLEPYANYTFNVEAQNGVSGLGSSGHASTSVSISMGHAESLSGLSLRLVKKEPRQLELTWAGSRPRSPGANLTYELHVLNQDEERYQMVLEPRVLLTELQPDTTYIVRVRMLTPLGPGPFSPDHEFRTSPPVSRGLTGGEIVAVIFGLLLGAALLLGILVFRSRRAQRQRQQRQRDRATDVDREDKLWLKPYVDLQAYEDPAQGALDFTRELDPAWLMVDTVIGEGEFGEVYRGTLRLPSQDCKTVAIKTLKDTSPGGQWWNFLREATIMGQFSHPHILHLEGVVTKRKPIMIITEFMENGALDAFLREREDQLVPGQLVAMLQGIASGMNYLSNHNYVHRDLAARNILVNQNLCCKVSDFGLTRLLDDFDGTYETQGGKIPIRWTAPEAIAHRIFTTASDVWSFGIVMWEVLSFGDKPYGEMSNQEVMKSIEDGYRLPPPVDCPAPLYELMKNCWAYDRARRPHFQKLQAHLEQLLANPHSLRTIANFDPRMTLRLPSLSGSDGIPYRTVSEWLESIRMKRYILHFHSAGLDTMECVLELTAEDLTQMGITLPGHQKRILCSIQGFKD
Here is the method:
(§1) Also included in the kinase profile are four isoforms of PKC (δ, ε, η, θ) and eight isoforms of CAMKs (CAMKIα, δ, γ; CAMKIIα, β, δ, γ; CAMK4).
(§2) The global kinase profiling experiment was performed by Ambit Biosciences.

The target of another experiment is T2, RIPK2 (Homo sapiens, UniProt O43353).
T2 construct: purchased Ambit Biosciences (KINOMEscan)
T2 sequence (O43353 whole entry): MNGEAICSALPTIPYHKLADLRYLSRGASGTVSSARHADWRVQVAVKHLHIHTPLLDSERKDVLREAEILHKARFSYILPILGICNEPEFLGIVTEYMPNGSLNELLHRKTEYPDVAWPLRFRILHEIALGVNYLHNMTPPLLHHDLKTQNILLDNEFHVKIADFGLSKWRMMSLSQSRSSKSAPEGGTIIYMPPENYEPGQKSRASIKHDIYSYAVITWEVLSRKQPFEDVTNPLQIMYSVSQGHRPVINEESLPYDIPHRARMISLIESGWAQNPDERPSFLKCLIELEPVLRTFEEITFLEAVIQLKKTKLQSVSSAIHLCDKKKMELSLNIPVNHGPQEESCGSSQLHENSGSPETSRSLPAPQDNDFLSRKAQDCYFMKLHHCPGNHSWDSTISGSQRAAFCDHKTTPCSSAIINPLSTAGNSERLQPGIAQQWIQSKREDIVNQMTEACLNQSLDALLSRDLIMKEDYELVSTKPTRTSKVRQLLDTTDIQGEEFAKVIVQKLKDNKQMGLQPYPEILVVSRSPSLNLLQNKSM
As for the experimental part: as §1, §2

The next experiment deals with T3, RIPK4 (Homo sapiens, UniProt P57078).
T3 construct: purchased Ambit Biosciences (KINOMEscan)
T3 sequence (P57078 1-832): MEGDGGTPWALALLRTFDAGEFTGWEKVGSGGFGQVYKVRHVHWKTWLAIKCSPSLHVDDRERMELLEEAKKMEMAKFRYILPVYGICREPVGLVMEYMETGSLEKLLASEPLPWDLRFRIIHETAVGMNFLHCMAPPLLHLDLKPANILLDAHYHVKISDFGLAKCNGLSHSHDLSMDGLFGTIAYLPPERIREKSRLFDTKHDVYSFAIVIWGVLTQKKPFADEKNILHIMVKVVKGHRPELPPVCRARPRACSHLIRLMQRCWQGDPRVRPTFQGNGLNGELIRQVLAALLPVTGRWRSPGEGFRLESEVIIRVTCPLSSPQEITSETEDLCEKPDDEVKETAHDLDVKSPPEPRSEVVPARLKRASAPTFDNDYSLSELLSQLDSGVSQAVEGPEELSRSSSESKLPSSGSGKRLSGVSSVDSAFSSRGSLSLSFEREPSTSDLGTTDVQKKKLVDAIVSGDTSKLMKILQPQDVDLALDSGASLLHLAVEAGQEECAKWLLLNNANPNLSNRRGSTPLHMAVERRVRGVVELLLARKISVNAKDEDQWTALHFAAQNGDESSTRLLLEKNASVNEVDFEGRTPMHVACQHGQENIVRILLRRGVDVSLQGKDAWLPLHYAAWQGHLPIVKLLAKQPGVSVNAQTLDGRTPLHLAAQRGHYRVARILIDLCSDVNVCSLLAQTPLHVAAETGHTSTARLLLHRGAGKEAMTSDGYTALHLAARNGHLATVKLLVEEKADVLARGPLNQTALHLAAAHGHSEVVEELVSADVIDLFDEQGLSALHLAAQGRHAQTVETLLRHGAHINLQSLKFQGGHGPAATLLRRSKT
Here is the method: as §1, §2

Another experiment addresses T4, MEK3 (Homo sapiens, UniProt P46734).
T4 construct: purchased Ambit Biosciences (KINOMEscan)
T4 sequence (P46734 1-347): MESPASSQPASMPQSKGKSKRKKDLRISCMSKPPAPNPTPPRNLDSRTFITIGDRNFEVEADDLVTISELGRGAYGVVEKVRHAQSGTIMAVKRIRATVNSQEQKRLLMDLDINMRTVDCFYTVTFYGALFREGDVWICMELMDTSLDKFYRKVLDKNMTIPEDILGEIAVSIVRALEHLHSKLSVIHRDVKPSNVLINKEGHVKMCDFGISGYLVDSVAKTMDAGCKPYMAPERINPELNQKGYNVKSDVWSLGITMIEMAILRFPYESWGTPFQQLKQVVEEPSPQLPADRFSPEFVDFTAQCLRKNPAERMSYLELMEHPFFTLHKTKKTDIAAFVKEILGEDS
Here is the method: as §1, §2

Another experiment has as its target T5, ROS1 (Homo sapiens, UniProt P08922).
T5 construct: purchased Ambit Biosciences (KINOMEscan)
Here is the method:
as §1, §2

The next experiment concerns the target T6, EGFR(G719C) (Homo sapiens, UniProt P00533, G719C).
T6 construct: purchased Ambit Biosciences (KINOMEscan)
The conditions noted are these: for % Competition: 10 µM. As for the experimental part: as §1, §2

Read-outs that look alike come from different tables or passages of the source.

T5 sequence (P08922 28-2347): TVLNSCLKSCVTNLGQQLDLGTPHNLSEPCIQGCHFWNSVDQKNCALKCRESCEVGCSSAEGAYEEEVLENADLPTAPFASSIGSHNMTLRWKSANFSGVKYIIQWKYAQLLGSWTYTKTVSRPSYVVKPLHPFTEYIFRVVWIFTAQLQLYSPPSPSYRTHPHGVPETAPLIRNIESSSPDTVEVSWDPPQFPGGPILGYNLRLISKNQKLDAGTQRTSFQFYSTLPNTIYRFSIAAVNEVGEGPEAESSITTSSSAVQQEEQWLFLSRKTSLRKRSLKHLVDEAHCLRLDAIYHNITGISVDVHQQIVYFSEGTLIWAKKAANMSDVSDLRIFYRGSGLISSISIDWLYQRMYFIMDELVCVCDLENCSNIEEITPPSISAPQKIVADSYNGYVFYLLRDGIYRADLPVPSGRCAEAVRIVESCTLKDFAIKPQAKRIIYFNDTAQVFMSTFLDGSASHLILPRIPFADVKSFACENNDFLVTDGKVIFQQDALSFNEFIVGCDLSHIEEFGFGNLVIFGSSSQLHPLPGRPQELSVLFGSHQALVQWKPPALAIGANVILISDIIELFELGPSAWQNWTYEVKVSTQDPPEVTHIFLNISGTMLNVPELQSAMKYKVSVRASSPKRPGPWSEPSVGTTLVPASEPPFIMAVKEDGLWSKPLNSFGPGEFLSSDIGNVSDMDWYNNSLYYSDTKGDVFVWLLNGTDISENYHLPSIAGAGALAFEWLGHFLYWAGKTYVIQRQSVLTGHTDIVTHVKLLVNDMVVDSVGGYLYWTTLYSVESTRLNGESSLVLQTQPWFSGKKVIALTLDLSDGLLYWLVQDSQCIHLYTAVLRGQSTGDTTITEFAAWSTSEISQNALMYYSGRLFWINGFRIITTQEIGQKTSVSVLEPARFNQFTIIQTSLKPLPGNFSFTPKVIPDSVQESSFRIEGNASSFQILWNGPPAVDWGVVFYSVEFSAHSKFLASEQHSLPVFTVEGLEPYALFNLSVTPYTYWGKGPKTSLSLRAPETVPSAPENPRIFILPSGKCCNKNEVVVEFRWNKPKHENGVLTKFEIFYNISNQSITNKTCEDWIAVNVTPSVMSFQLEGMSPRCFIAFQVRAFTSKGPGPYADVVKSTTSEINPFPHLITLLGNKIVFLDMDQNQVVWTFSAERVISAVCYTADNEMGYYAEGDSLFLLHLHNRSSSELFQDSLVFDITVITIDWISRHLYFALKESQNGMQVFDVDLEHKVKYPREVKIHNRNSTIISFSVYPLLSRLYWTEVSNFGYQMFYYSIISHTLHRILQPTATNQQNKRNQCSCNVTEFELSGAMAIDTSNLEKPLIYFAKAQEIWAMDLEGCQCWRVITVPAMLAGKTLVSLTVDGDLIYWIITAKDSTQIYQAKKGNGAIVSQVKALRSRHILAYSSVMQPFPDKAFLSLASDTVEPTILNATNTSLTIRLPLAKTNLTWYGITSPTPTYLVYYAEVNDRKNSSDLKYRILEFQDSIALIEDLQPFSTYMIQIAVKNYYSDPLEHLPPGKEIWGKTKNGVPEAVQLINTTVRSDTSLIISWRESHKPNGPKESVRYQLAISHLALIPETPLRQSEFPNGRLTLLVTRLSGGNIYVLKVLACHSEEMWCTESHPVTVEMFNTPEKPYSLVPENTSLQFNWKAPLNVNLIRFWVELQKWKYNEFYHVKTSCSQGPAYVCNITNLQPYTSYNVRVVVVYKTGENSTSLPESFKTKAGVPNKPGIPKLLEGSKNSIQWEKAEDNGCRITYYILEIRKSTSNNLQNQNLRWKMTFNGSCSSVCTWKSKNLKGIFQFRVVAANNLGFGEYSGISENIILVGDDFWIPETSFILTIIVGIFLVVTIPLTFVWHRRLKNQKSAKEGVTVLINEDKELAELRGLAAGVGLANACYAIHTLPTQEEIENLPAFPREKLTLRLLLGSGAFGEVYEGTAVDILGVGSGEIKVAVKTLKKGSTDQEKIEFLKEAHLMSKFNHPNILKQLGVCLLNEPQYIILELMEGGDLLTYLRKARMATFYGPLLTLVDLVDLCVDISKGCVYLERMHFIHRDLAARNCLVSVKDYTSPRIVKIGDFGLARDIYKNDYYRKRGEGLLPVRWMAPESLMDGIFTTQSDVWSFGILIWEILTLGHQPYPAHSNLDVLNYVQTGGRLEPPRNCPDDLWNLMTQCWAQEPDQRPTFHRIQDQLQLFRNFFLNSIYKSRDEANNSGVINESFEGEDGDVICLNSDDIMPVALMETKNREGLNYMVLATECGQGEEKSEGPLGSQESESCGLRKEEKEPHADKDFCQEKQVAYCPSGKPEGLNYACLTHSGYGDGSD

Take `CC(O)CNc1cc(-c2[nH]c3cccnc3c2-c2ccc(F)cc2)ccn1` (stereo not drawn) [Compound 140]: the inhibition at 10 µM at EPHA1 (read-out: % Competition) is under 50%; on RIPK2 (read-out: % Competition), 94%; on RIPK4 (read-out: % Competition), under 50%; at MEK3 (read-out: % Competition), under 50%; on ROS1 (read-out: % Competition), under 50%. In addition, the “% Competition” value at EGFR(G719C) stood at 87%.

Regarding `Fc1ccc(-c2c(-c3ccncc3)[nH]c3nccnc23)cc1` [RO1155697-000-005], the inhibition at 10 µM at EPHA1 (EPHA1, compound concentration 10 uM, read-out: Percent Competition) worked out at 81%; on RIPK2 (RIPK2, compound concentration 10 uM, read-out: Percent Competition), 97%; at RIPK4 (RIPK4, compound concentration 10 uM, read-out: Percent Competition), 76%; at MEK3 (MEK3, compound concentration 10 uM, read-out: Percent Competition) it was 99%; at ROS1 (ROS1, compound concentration 10 uM, read-out: Percent Competition) it was 80%. In addition, the “Percent Competition” value on EGFR(G719C) (compound concentration 10 uM) came out at 99%.

In the case of `Fc1ccc(-c2c(-c3ccncc3)[nH]c3nccnc23)cc1` [Compound 122], the inhibition at 10 µM amounted to 81% at EPHA1 (EPHA1, 10 µM, read-out: % Competition); 97% on RIPK2 (RIPK2, 10 µM, read-out: % Competition); 76% on RIPK4 (RIPK4, 10 µM, read-out: % Competition); 99% on MEK3 (MEK3, 10 µM, read-out: % Competition); 80% at ROS1 (ROS1, 10 µM, read-out: % Competition). Moreover, the “% Competition” value on EGFR(G719C) is recorded as 99%.

Values taken from publication PMC3445516 (PLoS ONE, 2012).
